Measured values from publication PMC11679033, “Assessing the Potential Synergistic/Antagonistic Effects of Citrinin and Cannabidiol on SH-SY5Y, HepG2, HEK293 Cell Lines, and Human Lymphocytes” (Toxins, 2024).

Experiments:
[1] = test system: human peripheral blood lymphocytes; test: Lymphocyte proliferation / cytotoxicity (CBPI, RI); assay type: cell-based; conditions: 24 h, citrinin 7.50 µg/mL, CBD 3.15 µg/mL, bleomycin 1.25 µg/mL; for Cytokinesis-Block Proliferation Index: 3000 cells scored; for Replication Index (%): relative to negative control
Source text: (§1) On the same slides, parameters of cell proliferation, cytostasis and cytotoxicity were studied, according to recommendations by OECD 2023 [67]. For that purpose, the numbers of mono-, bi-, tri-, and quadrinuclear cells (i.e., M1, M2, M3, M4) were scored at 400× magnification using a light microscope (Leitz, Oberkochen, Germany). The total number of M1 to M4 cells counted per experimental group was 3000 (i.e., 6 × 500 cells).
(§2) Based on the scored ratios of M1 to M4 cells, the Cytokinesis-Block Proliferation Index (CBPI) was calculated, using the formula: CBPI = [(No. of mononucleated cells) + (2 × No. of binucleated cells) + (3 × No. of multinucleated cells)]/(Total number of cells).
(§3) To establish the relative number of cell cycles per cell during the period of exposure to cytoB in treated compared to control cultures, the Replication Index (RI) was also calculated according to the formula:RI = {[(<No. binucleated cells> + <2 × No. multinucleated cells>)/(Total number of cells in treated culture)]/[(<No. binucleated cells> + <2 × No. multinucleated cells>) […] (Total number of cells in control culture)]} × 100
(§4) Finally, from the obtained values of RI, the cytotoxicity estimate was deduced, as % Cytotoxicity = […].

[2] = Lymphocyte proliferation / cytotoxicity (CBPI, RI); assay type: cell-based, human; conditions: human, citrinin 7.50 µg/mL, CBD 3.15 µg/mL, bleomycin 1.25 µg/mL, deduced from RI
Source text: as §1, §2, §3, §4

human TK6 cells = test system: human TK6 cells; parameters: method as in PMID 37105391; conditions: up to 10–11 μg/mL, with and without metabolic activation; cited from earlier work
[3] = test system: buccal-derived cells (TR146); parameters: method as in PMID 30341733; conditions: cited from earlier work
[4] = test system: human liver cell line (HepG2); parameters: method as in PMID 30341733; conditions: cited from earlier work
[5] = parameters: method as in PMID 38908200; conditions: 24 h exposure to CBD samples; cited from earlier work
A549 cells = test system: A549 cells; parameters: method as in PMID 39057961; conditions: A549, 24 h, sub-IC50 and near IC50 concentrations; cited from earlier work
HEK293 cells = test system: HEK293 cells; parameters: method as in PMID 13678658; conditions: HEK293, concentrations ≤60 μM for 24 h; cited from earlier work
HepG2 cells = conditions: cited from earlier work
[6] = test system: cultured human lymphocytes; parameters: method as in PMID 17265422; conditions: 48 h exposure, 60–100 μM; cited from earlier work

Row | SMILES | Cytokinesis-Block Proliferation Index [1] | Replication Index (%) [1] [%] | cytotoxicity at 24 h [2] [%] | genotoxic hazard (human TK6 cells) | level above which damage was found in MN assay [3] | level above which damage was found in MN assay [4] | genomic instability estimated by CBMN Cyt Assay [5] | DNA damage in comet assay (A549 cells) | toxic effect in Fpg-modified comet assay (HEK293 cells) | DNA damage in comet assay (HepG2 cells; HepG2, 24 h, sub-IC50 and near IC50 concentrations) | genotoxicity in comet assay (HepG2 cells; HepG2) | induction of MNi vs negative controls [6]
1 | C=C(C)[C@@H]1CCC(C)=C[C@H]1c1c(O)cc(CCCCC)cc1O [CBD, cannabidiol] | 1.96^↓nc, sc | 97.14 | 2.86 | did not pose a genotoxic hazard | above 0.2 µM | above 0.2 µM | no changes in genomic instability |  |  |  |  | 
2 | CC1=C2C(=CO[C@H](C)[C@H]2C)C(O)=C(C(=O)O)C1=O [CIT, citrinin] | 1.83^↓nc, sc, cbd, & | 83.46 | 16.5 |  |  |  |  | induced significant DNA damage | did not show toxic effect | induced significant DNA damage | no significant genotoxicity | significant induction of MNi
